Series [1] can be described thus: Inhibition of GSNOR expressed in Escherichia coli using GSNO by plate method.
Series [2] deals with T1, Adenosine receptor A1 (Homo sapiens) (UniProt P30542).
T1 sequence (whole entry): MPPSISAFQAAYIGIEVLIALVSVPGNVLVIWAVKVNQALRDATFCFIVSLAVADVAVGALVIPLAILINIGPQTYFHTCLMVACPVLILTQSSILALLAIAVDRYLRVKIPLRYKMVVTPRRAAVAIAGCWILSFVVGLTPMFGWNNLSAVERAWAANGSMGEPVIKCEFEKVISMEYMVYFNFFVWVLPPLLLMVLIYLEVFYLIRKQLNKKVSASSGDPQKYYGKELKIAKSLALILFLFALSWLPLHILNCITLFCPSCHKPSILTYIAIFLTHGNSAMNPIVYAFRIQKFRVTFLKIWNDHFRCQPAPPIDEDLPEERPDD
As to the kind of experiment: Inhibition of human recombinant A1 receptor at 10 uM by radioligand binding assay.

The target in series [3] is Adrenergic receptor alpha-1 (Homo sapiens) (UniProt P35348+P25100+P35368). In words: Inhibition of human recombinant alpha1 receptor at 10 uM by radioligand binding assay.
Series [4] deals with Beta-2 adrenergic receptor (Homo sapiens) (UniProt P07550). As to the kind of experiment: Inhibition of human recombinant beta2 receptor at 10 uM by radioligand binding assay.
Chain of Beta-2 adrenergic receptor (Homo sapiens) (P07550 whole entry, looked up): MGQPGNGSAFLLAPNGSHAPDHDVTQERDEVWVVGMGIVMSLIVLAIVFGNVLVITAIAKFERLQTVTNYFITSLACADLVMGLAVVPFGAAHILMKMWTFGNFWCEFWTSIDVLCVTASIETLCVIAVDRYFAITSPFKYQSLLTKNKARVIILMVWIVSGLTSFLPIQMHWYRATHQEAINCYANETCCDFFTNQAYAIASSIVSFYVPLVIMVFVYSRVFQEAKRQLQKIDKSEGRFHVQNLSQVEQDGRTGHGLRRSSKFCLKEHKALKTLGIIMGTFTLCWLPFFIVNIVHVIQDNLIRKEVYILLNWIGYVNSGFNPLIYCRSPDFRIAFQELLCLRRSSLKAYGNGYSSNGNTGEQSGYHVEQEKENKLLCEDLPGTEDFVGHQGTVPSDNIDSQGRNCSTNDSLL
The target in series [5] is Cannabinoid receptor 1 (Homo sapiens) (UniProt P21554). In words: Inhibition of human recombinant CB1 receptor at 10 uM by radioligand binding assay.
Chain of Cannabinoid receptor 1 (Homo sapiens) (P21554 whole entry): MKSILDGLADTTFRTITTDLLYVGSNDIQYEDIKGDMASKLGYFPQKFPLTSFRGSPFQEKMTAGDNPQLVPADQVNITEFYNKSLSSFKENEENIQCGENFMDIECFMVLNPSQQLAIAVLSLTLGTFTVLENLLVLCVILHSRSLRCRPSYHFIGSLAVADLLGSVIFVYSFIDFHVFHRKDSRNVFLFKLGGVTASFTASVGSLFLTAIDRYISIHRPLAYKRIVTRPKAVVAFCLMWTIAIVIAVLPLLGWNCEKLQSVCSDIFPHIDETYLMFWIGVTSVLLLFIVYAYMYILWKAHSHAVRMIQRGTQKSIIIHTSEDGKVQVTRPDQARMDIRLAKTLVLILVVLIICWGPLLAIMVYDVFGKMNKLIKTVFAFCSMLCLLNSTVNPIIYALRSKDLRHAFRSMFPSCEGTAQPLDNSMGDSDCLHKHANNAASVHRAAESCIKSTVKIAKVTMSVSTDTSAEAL
In series [6] the target is T2, Endothelin-1 receptor (Homo sapiens) (UniProt P25101).
T2 sequence (whole entry): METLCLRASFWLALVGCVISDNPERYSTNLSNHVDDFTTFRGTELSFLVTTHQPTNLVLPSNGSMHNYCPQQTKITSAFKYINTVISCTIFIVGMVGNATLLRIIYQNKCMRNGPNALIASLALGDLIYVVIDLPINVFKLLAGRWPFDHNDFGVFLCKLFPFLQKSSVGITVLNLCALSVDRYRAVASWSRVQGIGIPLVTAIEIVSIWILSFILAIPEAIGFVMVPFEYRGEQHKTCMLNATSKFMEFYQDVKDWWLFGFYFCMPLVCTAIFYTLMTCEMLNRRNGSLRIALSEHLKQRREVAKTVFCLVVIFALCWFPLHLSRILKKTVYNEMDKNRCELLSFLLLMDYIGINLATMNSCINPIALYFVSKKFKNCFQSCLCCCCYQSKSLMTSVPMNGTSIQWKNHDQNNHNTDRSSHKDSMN
In words: Inhibition of human recombinant ETA receptor at 10 uM by radioligand binding assay.

In series [7] the target is T3, Galanin receptor type 2 (Homo sapiens) (UniProt O43603).
T3 sequence (whole entry): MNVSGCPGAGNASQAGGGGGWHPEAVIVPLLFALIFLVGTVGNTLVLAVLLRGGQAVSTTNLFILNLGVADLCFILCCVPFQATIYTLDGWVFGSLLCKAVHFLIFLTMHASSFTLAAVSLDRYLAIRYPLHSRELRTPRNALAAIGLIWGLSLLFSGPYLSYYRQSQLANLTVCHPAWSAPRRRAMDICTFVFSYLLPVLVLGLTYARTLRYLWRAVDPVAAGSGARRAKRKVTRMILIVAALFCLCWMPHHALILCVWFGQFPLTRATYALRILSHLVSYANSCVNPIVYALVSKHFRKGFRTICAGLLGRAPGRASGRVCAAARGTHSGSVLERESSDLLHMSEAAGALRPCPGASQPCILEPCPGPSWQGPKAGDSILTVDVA
In words: Inhibition of human recombinant GAL2 receptor at 10 uM by radioligand binding assay.

In series [8] the target is T4, C-X-C chemokine receptor type 2 (Homo sapiens) (UniProt P25025).
T4 sequence (whole entry): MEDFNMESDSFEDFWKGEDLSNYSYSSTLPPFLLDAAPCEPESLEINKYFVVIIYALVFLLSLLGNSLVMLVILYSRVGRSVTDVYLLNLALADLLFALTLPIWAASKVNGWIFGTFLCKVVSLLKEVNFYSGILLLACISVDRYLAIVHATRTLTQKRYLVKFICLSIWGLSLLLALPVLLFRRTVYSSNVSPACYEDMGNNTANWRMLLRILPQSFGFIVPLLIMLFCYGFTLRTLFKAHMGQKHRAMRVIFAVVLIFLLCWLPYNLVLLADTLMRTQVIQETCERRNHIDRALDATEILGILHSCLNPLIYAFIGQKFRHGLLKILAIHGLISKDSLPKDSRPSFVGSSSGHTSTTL
In words: Inhibition of human recombinant CXCR2 receptor at 10 uM by radioligand binding assay.

Series [9] deals with Histamine H1 receptor (Homo sapiens) (UniProt P35367). As to the kind of experiment: Inhibition of human recombinant H1 receptor at 10 uM by radioligand binding assay.
Chain of Histamine H1 receptor (Homo sapiens) (P35367 whole entry): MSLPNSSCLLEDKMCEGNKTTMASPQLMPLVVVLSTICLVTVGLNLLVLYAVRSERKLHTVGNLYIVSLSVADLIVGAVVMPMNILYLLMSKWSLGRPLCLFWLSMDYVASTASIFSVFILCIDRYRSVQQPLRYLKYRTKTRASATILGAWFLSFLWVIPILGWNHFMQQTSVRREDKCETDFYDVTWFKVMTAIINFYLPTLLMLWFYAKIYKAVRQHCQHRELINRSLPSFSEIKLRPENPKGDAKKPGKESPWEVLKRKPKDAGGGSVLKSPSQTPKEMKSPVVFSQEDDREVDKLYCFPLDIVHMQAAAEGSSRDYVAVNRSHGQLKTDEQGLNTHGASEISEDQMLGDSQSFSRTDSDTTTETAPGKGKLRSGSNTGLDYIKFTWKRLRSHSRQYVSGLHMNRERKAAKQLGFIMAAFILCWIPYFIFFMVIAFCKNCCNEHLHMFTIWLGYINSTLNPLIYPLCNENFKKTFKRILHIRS
In series [10] the target is Histamine H2 receptor (Homo sapiens) (UniProt P25021). In words: Inhibition of human recombinant H2 receptor at 10 uM by radioligand binding assay.
Chain of Histamine H2 receptor (Homo sapiens) (P25021 whole entry): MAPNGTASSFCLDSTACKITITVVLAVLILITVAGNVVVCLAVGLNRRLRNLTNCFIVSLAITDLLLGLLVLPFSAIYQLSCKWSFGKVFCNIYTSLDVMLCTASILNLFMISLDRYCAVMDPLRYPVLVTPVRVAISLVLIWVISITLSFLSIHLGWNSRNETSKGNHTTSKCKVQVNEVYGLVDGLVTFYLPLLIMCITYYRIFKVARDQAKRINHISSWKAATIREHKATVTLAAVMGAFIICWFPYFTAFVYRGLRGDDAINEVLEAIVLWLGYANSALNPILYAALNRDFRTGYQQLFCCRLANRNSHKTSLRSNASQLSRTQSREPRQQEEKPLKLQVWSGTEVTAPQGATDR
Series [11] concerns the target Melanocortin receptor 4 (Homo sapiens) (UniProt P32245). In words: Inhibition of human recombinant MC4 receptor at 10 uM by radioligand binding assay.
The target in series [12] is T5, Muscarinic acetylcholine receptor M2 (Homo sapiens) (UniProt P08172).
T5 sequence (whole entry): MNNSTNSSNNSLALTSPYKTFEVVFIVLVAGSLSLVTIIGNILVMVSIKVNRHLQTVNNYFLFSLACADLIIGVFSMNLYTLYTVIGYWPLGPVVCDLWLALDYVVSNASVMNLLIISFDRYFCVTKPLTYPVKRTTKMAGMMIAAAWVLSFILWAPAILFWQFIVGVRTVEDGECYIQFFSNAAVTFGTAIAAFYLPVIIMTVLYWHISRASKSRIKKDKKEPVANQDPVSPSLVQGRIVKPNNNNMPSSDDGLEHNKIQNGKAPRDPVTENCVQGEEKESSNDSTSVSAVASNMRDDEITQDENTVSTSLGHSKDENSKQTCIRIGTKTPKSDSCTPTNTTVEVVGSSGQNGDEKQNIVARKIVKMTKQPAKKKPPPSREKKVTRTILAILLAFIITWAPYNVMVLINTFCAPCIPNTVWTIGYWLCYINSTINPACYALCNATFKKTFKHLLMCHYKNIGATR
As to the kind of experiment: Inhibition of human recombinant M2 receptor at 10 uM by radioligand binding assay.

The species entered for series [13] is Homo sapiens. In words: Inhibition of human recombinant Dop delta2 receptor at 10 uM by radioligand binding assay.
Series [14] has as its target Kappa-type opioid receptor (Homo sapiens) (UniProt P41145). In words: Inhibition of human recombinant KOP receptor at 10 uM by radioligand binding assay.
Series [15] deals with Voltage-gated potassium channel. In words: Inhibition of human recombinant Kv channel at 10 uM by radioligand binding assay. The format is protein assay.
The species named for series [16] is Homo sapiens. In words: Inhibition of human recombinant chloride channel at 10 uM by radioligand binding assay.
Series [17] deals with Sodium-dependent serotonin transporter (Homo sapiens) (UniProt P31645). In words: Inhibition of human recombinant 5HT transporter at 10 uM by radioligand binding assay.
Chain of Sodium-dependent serotonin transporter (Homo sapiens) (P31645 whole entry, looked up): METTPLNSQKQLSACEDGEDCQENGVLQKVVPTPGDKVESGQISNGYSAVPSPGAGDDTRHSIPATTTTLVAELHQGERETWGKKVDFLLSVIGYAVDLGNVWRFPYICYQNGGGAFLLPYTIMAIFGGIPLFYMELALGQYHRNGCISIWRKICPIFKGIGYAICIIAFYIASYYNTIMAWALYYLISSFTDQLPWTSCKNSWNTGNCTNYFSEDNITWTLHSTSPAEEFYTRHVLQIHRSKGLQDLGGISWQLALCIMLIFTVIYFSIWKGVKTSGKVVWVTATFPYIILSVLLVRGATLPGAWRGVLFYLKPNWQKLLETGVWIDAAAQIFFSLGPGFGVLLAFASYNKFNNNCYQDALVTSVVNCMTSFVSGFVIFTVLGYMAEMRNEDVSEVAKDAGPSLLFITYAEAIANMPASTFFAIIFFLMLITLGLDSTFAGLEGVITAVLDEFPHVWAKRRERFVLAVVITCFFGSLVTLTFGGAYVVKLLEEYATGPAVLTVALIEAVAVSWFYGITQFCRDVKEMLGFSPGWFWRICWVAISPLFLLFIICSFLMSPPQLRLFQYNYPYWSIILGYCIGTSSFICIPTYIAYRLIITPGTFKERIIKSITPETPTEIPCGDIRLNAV
Series [18] has as its target Neuropeptide Y receptor type 2 (Homo sapiens) (UniProt P49146). As to the kind of experiment: Inhibition of human recombinant Y2 receptor at 10 uM by radioligand binding assay.

The record followed here is ChEMBL document CHEMBL1781986, “Structure-activity relationships of pyrrole based S-nitrosoglutathione reductase inhibitors: pyrrole regioisomers and propionic acid replacement” (Bioorg Med Chem Lett, 2011).

Each structure is given as a SMILES string. Active and inactive are the calls of the source. No cut-off for these calls is given here.

Chain of Melanocortin receptor 4 (Homo sapiens) (P32245 whole entry): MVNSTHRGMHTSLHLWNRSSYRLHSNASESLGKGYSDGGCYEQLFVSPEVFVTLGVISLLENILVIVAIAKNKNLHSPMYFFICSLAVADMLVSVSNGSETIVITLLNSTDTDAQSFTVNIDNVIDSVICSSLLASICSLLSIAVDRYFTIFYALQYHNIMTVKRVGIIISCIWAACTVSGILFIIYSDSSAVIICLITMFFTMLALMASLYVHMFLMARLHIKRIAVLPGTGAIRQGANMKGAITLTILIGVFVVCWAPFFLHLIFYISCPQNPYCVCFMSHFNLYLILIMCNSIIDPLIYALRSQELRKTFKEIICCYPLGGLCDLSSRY
Chain of Neuropeptide Y receptor type 2 (Homo sapiens) (P49146 whole entry, looked up): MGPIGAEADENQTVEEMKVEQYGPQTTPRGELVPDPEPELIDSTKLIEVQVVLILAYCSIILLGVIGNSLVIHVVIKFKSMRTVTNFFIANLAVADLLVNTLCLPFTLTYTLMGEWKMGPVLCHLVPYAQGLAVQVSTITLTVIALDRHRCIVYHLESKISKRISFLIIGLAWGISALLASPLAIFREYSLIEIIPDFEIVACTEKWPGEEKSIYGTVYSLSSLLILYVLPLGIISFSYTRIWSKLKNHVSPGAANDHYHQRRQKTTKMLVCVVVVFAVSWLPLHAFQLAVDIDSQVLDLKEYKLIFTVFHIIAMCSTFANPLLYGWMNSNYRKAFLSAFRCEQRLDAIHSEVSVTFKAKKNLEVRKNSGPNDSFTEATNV
Chain of Kappa-type opioid receptor (Homo sapiens) (P41145 whole entry): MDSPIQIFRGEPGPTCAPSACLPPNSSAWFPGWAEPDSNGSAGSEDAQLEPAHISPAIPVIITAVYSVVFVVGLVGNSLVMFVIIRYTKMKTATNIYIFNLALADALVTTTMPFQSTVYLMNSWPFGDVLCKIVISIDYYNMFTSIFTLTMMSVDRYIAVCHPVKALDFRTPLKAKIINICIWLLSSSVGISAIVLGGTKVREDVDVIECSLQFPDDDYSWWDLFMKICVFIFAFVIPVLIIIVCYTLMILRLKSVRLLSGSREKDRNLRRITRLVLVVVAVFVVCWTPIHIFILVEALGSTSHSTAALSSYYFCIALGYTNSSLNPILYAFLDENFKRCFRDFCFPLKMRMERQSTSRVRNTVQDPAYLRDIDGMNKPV

For the compound `Cc1cc(C(N)=O)ccc1-c1c(-c2ccc(-n3ccnc3)cc2)ccn1CCC(=O)O`, half-maximal inhibition in [1] (IC50) required 0.035 µM. For the same compound, the inhibition result in series [2], in series [3], in [4], in series [5], in [6] and in series [7] was “inactive” each time. Moreover, the inhibition result in series [8], in series [9], in series [10], in series [11], in [12] and in series [14] was “inactive” throughout. In addition, the inhibition entry in series [16], in series [17] and in series [18] was “inactive” throughout. Also, the inhibition entry in [13] was “Active”. In addition, the “inhibition (INH)” value in series [15] is “Not Active”.
For `COc1ccc(-c2ccn(-c3ccc(C(=O)O)c(O)c3)c2-c2ccc(C(N)=O)cc2C)cc1`, the inhibition result in series [2], in series [3], in [4], in series [5], in [6] and in [7] was “Active” each time. In addition, the inhibition entry in series [8], in [9], in series [10], in [11], in [12] and in [13] was “Active” throughout. For the same compound, the inhibition result in series [14], in [16], in series [17] and in series [18] was “Active” in each case. Moreover, in series [15], the “inhibition (INH)” value is on record as “Active”.
Compound `Cc1cc(C(N)=O)ccc1-c1c(CCC(=O)O)ccn1-c1ccc(-n2ccnc2)cc1` returned an IC50 in series [1] of 0.0099 µM. In addition, the inhibition result in series [2], in [3], in series [4], in [5], in series [6] and in series [7] was “inactive” each time. Also, the inhibition result in series [8], in series [9], in series [10], in series [11], in series [12] and in series [14] was “inactive” each time. For the same compound, the inhibition entry in [16], in series [17] and in [18] was “inactive” throughout. The inhibition result in series [13] was “Active”. Also, the “inhibition (INH)” value in series [15] is “Not Active”.
Regarding `Cc1cc(C(N)=O)ccc1-n1c(CCC(=O)O)ccc1-c1ccc(-n2ccnc2)cc1` [N6022], half-maximal inhibition in series [1] (IC50) required 0.01 µM. The inhibition result in [2], in [3], in series [4], in [5], in series [6] and in [7] was “inactive” in each case. For the same compound, the inhibition result in series [8], in series [9], in series [10], in [11], in series [12] and in series [14] was “inactive” each time. Also, the inhibition entry in series [16], in series [17] and in series [18] was “inactive” throughout. The inhibition entry in series [13] is “Active”. In addition, in [15], the “inhibition (INH)” value is “Not Active”.
Take `COc1ccc(-c2ccn(-c3ccc(O)c([N+](=O)[O-])c3)c2-c2ccc(C(N)=O)cc2C)cc1`: the inhibition result in [2], in series [3], in [4], in [5], in series [6] and in series [7] was “Active” in each case. Besides, the inhibition entry in series [8], in series [9], in [10], in [11], in series [12] and in series [13] was “Active” throughout. For the same compound, the inhibition entry in series [14], in series [16], in [17] and in series [18] was “Active” in each case. In addition, the “inhibition (INH)” value in [15] is on record as “Active”.
